Results: ChEMBL document CHEMBL4393657, “Tetrazole hybrids and their antifungal activities” (2019)
≈ marks a conversion by molar mass, not a printed value.

How the values were obtained:
Format in all cases: functional
[1] = tested on: Candida albicans; test: Antifungal activity against Candida albicans assessed as reduction in fungal cell growth incubated for 48 hrs by broth microdilution susceptibility method
[2] = tested on: Candida albicans; test: Antifungal activity against Candida albicans assessed as reduction in fungal cell growth incubated for 24 and 72 hrs by cup plate method
[3] = tested on: Aspergillus flavus; test: Antifungal activity against Aspergillus flavus assessed as reduction in fungal cell growth incubated for 24 and 72 hrs by cup plate method
[4] = tested on: Fusarium oxysporum; test: Antifungal activity against Fusarium oxysporum assessed as reduction in fungal cell growth incubated for 24 and 72 hrs by cup plate method
[5] = tested on: Cryptococcus neoformans; test: Antifungal activity against Cryptococcus neoformans LA314 assessed as reduction in fungal cell growth incubated for 48 hrs by broth microdilution method; details: LA314, 48 h
[6] = tested on: Aspergillus niger; test: Antifungal activity against Aspergillus niger assessed as reduction in fungal cell growth incubated for 72 hrs by broth microdilution method
[7] = tested on: Candida tropicalis; test: Antifungal activity against Candida tropicalis assessed as reduction in fungal cell growth incubated for 48 hrs by broth microdilution method
[8] = tested on: Nakaseomyces glabratus; test: Antifungal activity against Candida glabrata assessed as reduction in fungal cell growth incubated for 48 hrs by broth microdilution method
[9] = tested on: Candida albicans; test: Antifungal activity against Candida albicans assessed as reduction in fungal cell growth incubated for 48 hrs by broth microdilution method
[10] = tested on: Candida parapsilosis; test: Antifungal activity against Candida parapsilosis ATCC 22019 assessed as reduction in fungal cell growth incubated for 48 hrs by broth microdilution method; details: Lodderomyces parapsilosis, ATCC 22019, 48 h
[11] = tested on: Pichia kudriavzevii; test: Antifungal activity against Candida krusei assessed as reduction in fungal cell growth incubated for 48 hrs by broth microdilution method

Compound	MIC [2]	MIC [3]	MIC [4]	further results
O=C1/C(=C/c2ccccc2)C(=O)N(c2ccc(Cl)cc2)C(=S)N1/N=C/c1cc2ccccc2n2nnnc12	–	–	–	MIC [1]: ≥ 100 µg/mL
CCOC(=O)C(C#N)C(c1cc2c(OC)cccc2n2nnnc12)P(=O)(OCC)OCC (stereo not drawn)	10 µg/mL (≈ 21.7 µM)	10 µg/mL (≈ 21.7 µM)	10 to 25 µg/mL (≈ 21.7 to 54.2 µM)	–
COc1ccc2cc(C3CC(c4cc(Br)ccc4O)=NN3)c3nnnn3c2c1 (stereo not drawn)	25 to 100 µg/mL (≈ 56.9 to 228 µM)	25 to 100 µg/mL (≈ 56.9 to 228 µM)	25 to 100 µg/mL (≈ 56.9 to 228 µM)	–
CCOC(=O)C(C#N)C(c1cc2ccc(CC)cc2n2nnnc12)P(=O)(OCC)OCC (stereo not drawn)	10 to 25 µg/mL (≈ 21.8 to 54.4 µM)	10 to 25 µg/mL (≈ 21.8 to 54.4 µM)	10 to 25 µg/mL (≈ 21.8 to 54.4 µM)	–
CCOC(=O)C(C#N)C(c1cc2cc(OC)ccc2n2nnnc12)P(=O)(OCC)OCC (stereo not drawn)	10 to 25 µg/mL (≈ 21.7 to 54.2 µM)	10 to 25 µg/mL (≈ 21.7 to 54.2 µM)	10 to 25 µg/mL (≈ 21.7 to 54.2 µM)	–
COc1ccc2cc(/C=C/C(=O)c3cc(Br)ccc3O)c3nnnn3c2c1	25 to 100 µg/mL (≈ 58.8 to 235 µM)	25 to 100 µg/mL (≈ 58.8 to 235 µM)	25 to 100 µg/mL (≈ 58.8 to 235 µM)	–
S=C1N=C(c2ccc(Cl)cc2)CC(c2cc3ccccc3n3nnnc23)N1 (stereo not drawn)	–	–	–	MIC [1]: ≥ 100 µg/mL
CCOC(=O)C(C#N)C(c1cc2ccccc2n2nnnc12)P(=O)(OCC)OCC (stereo not drawn)	10 to 25 µg/mL (≈ 23.2 to 58 µM)	10 to 25 µg/mL (≈ 23.2 to 58 µM)	10 to 25 µg/mL (≈ 23.2 to 58 µM)	–
CCOC(=O)C(C#N)C(c1cc2c(OCC)cccc2n2nnnc12)P(=O)(OCC)OCC (stereo not drawn)	10 to 25 µg/mL (≈ 21 to 52.6 µM)	10 to 25 µg/mL (≈ 21 to 52.6 µM)	10 to 25 µg/mL (≈ 21 to 52.6 µM)	–
COc1cccc2c1cc(/C=C/C(=O)c1cc(Br)ccc1O)c1nnnn12	25 to 100 µg/mL (≈ 58.8 to 235 µM)	25 to 100 µg/mL (≈ 58.8 to 235 µM)	25 to 100 µg/mL (≈ 58.8 to 235 µM)	–
CCOC(=O)C(C#N)C(c1cc2cc(C)ccc2n2nnnc12)P(=O)(OCC)OCC (stereo not drawn)	10 to 25 µg/mL (≈ 22.5 to 56.1 µM)	10 to 25 µg/mL (≈ 22.5 to 56.1 µM)	10 to 25 µg/mL (≈ 22.5 to 56.1 µM)	–
CCOC(=O)C(C#N)C(c1cc2c(C)cccc2n2nnnc12)P(=O)(OCC)OCC (stereo not drawn)	10 to 25 µg/mL (≈ 22.5 to 56.1 µM)	10 to 25 µg/mL (≈ 22.5 to 56.1 µM)	10 to 25 µg/mL (≈ 22.5 to 56.1 µM)	–
Cc1ccc(N2C(=O)CC(=O)N(/N=C/c3cc4ccccc4n4nnnc34)C2=S)cc1	–	–	–	MIC [1]: ≥ 100 µg/mL
Cc1ccc2cc(/C=C/C(=O)c3cc(Br)ccc3O)c3nnnn3c2c1	25 to 100 µg/mL (≈ 61.1 to 244 µM)	25 to 100 µg/mL (≈ 61.1 to 244 µM)	25 to 100 µg/mL (≈ 61.1 to 244 µM)	–
O=C1/C(=C/c2ccccc2)C(=O)N(c2ccccc2)C(=S)N1/N=C/c1cc2ccccc2n2nnnc12	–	–	–	MIC [1]: ≥ 100 µg/mL
Cc1ccc2c(c1)cc(C1CC(c3cc(Br)ccc3O)=NN1)c1nnnn12 (stereo not drawn)	25 to 100 µg/mL (≈ 59.1 to 236 µM)	25 to 100 µg/mL (≈ 59.1 to 236 µM)	25 to 100 µg/mL (≈ 59.1 to 236 µM)	–
COc1ccc2c(c1)cc(/C=C/C(=O)c1cc(Br)ccc1O)c1nnnn12	25 to 100 µg/mL (≈ 58.8 to 235 µM)	25 to 100 µg/mL (≈ 58.8 to 235 µM)	25 to 100 µg/mL (≈ 58.8 to 235 µM)	–
Cc1cccc2c1cc(C1CC(c3cc(Br)ccc3O)=NN1)c1nnnn12 (stereo not drawn)	25 to 100 µg/mL (≈ 59.1 to 236 µM)	25 to 100 µg/mL (≈ 59.1 to 236 µM)	25 to 100 µg/mL (≈ 59.1 to 236 µM)	–
COc1cccc2c1cc(C1CC(c3cc(Br)ccc3O)=NN1)c1nnnn12 (stereo not drawn)	25 to 100 µg/mL (≈ 56.9 to 228 µM)	25 to 100 µg/mL (≈ 56.9 to 228 µM)	25 to 100 µg/mL (≈ 56.9 to 228 µM)	–
O=C(/C=C/c1cc2ccccc2n2nnnc12)c1cc(Br)ccc1O	25 to 100 µg/mL (≈ 63.3 to 253 µM)	25 to 100 µg/mL (≈ 63.3 to 253 µM)	25 to 100 µg/mL (≈ 63.3 to 253 µM)	–
CCOC(=O)C(C#N)C(c1cc2ccc(OC)cc2n2nnnc12)P(=O)(OCC)OCC (stereo not drawn)	10 to 25 µg/mL (≈ 21.7 to 54.2 µM)	10 to 25 µg/mL (≈ 21.7 to 54.2 µM)	10 to 25 µg/mL (≈ 21.7 to 54.2 µM)	–
Cc1ccc2cc(/C=C3\SC(=S)N(CC(=O)O)C3=O)c3nnnn3c2c1	25 to 50 µg/mL (≈ 64.9 to 130 µM)	25 to 50 µg/mL (≈ 64.9 to 130 µM)	25 to 50 µg/mL (≈ 64.9 to 130 µM)	–
COc1ccc2c(c1)cc(C1CC(c3cc(Br)ccc3O)=NN1)c1nnnn12 (stereo not drawn)	25 to 100 µg/mL (≈ 56.9 to 228 µM)	25 to 100 µg/mL (≈ 56.9 to 228 µM)	25 to 100 µg/mL (≈ 56.9 to 228 µM)	–
COc1ccccc1N1CCN(CCc2nnn([C@@H](C)[C@](O)(Cn3cncn3)c3ccc(F)cc3F)n2)CC1	–	–	–	MIC [5]: 0.25 to 16 µg/mL (≈ 0.463 to 29.7 µM); MIC [6]: 0.25 to 16 µg/mL (≈ 0.463 to 29.7 µM); MIC [7]: 0.25 to 16 µg/mL (≈ 0.463 to 29.7 µM); MIC [8]: 0.25 to 16 µg/mL (≈ 0.463 to 29.7 µM); MIC [9]: 0.25 to 16 µg/mL (≈ 0.463 to 29.7 µM); MIC [10]: 0.25 to 16 µg/mL (≈ 0.463 to 29.7 µM); MIC [11]: 0.25 to 16 µg/mL (≈ 0.463 to 29.7 µM)
